Assay [1] relates to chronic myelogenous leukemia (CML). The following applies: in vivo; cited from earlier work.
Assay [2] deals with K562 cells. Nature of the assay: GSK983 dose response, K562 cell growth (viable cells by flow cytometry). The class given is cell-based. Conditions: Homo sapiens, 72 h treatment, viable cells counted by flow cytometry, read-out: IC50, inhibition of K562 cell growth. As to the method: GSK983 dose response and growth time course in K562 cells. To determine the dose response of K562 cells to GSK983, K562 cells were seeded into 24-well plates at a density of 50,000 cells/mL and treated with GSK983 at the indicated concentration for 72 h. Following 72 h treatment, cells were harvested and the density of viable cells was determined by flow cytometry (FSC/SSC) using a BD Accuri C6 Flow Cytometer. IC50 values were calculated by fitting a 4-parameter logistic equation to the data. […] At the indicated time points, cells were harvested and the density of viable cells was determined by flow cytometry (FSC/SSC) using a BD Accuri C6 Flow Cytometer.
Background: A flow cytometer gives signals particle by particle.

Assay [3] has as its system K562 cells. Briefly: Cell cycle analysis based on total DNA content (propidium iodide). More on the design: species or system human. Conditions: 24 h GSK983 treatment. As to the method:
Cell cycle analysis based on total DNA content (propidium iodide). […] Cells were treated with the indicated concentration of GSK983 for 24 h. […] Following 24 treatment, cells were harvested and pelleted (300 g, 5 min). The supernatant was removed by vacuum and the cells were washed (0.5 mL 1×PBS). Cells were resuspended in 70% EtOH (1 mL, 0° C.) with mild vortexing. Cells were fixed in 70% EtOH overnight at 4° C. The following day, fixed cells were pelleted (1900 g, 5 min), washed (0.5 mL 1×PBS), and resuspended in 200 μL of a total DNA content staining solution (1×PBS with 50 μg/mL RNase A and 10 μg/mL propidium iodide). Samples were incubated for 30 min at 37° C. and analyzed by flow cytometry using a BD Accuri C6 Flow Cytometer. Propidium iodide fluorescence was detected in FL2.

Assay [4] deals with K562 cells. Nature of the assay: Annexin V-FITC/7-AAD apoptosis assay. The class given is cell-based, human. The following applies: 72 h GSK983 treatment. As to the method:
Annexin V-FITC/7-AAD apoptosis assay. K562 cells were seeded into 24-well plates at a density of 50,000 cells/mL and treated with the indicated concentration of GSK983 for 72 h. The final concentration of DMSO in each well was <0.1%. Following 72 h GSK983 treatment, cells were harvested and pelleted (399 g, 5 min). The supernatant was removed by vacuum. Cell death by apoptosis was analyzed using a BioVision Annexin V-FITC Apoptosis Kit (catalog number K101-100). A staining solution was prepared by first diluting the provided Annexin V-FITC solution in binding buffer according to the specifications of the manufacturer. 7-AAD was added from a stock solution in DMSO (0.67 mg/mL) such that the final concentration of 7-AAD in the staining solution was 2.5 μg/mL. Cell samples were resuspended in 0.5 mL of the staining solution. Samples were incubated at room temperature for 10 min in the dark and analyzed by flow cytometry using a BD Accuri C6 Flow Cytometer. FITC fluorescence was detected in FL1 and 7-AAD fluorescence was detected in FL3.

For assay [5], the target named is recombinant human DHODH (Homo sapiens, UniProt Q02127). Briefly: In vitro enzyme activity assay with recombinant human Δ29DHODH (DCPIP coupled assay). In kind it is biochemical. The following applies: recombinant human Δ29DHODH 10 nM, DHO 200 μM; read-out: Ki, DHODH, competitive with respect to decylubiquinone binding. The method, then: The reduction of DCPIP can be monitored by the loss of absorbance at 610 nm (ε=21,500 M−1cm-1). Kinetic constants were calculated from measurements in which Δ29DHODH (10 nM) was either titrated with different concentrations of decylubiquinone (QD, 10-60 μM) at a fixed concentration of DHO (200 μM) or titrated with different concentrations of DHO (10-60 μM) at a fixed concentration of QD (100 μM). Enzymatic assays were conducted at 25° C. in a reaction buffer containing Tris (100 mM, pH 8.0), NaCl (150 mM), DCPIP (60 μM), glycerol (10% v/v), and Triton X-100 (0.1% v/v). The Km values for Δ29DHODH (15 μM for DHO and 14 μM for QD) were in good agreement with previously reported values for both the full-size and N-terminally truncated enzyme.
For each inhibitor compound, three reactions were prepared: a control reaction containing no inhibitor and two reactions containing different inhibitor concentrations. Δ29DHODH was incubated with inhibitor compounds at room temperature for 5 min. The indicated concentration of QD and DHO (200 μM) were added to the reaction mixtures and absorbance at 610 nm was monitored using a PerkinElmer Lamda 25 UV-Vis spectrophotometer. For enzyme activity assays, inhibitor compounds were prepared as 1 mM stock solutions in DMSO. A QD stock solution (10 mM) was prepared in a buffer containing Tris (100 mM, pH 8.0) and Triton X-100 (1.0% v/v). […]

The target in assay [6] is T1, recombinant human CMPK1 (Homo sapiens, UniProt P30085).
T1 sequence (P30085 1-196): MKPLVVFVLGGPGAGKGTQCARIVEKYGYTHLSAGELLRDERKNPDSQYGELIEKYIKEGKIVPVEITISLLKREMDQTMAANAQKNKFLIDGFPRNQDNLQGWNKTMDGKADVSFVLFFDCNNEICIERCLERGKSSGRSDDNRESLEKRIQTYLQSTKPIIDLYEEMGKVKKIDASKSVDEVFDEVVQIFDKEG
Nature of the assay: In vitro enzyme activity assay with recombinant human CMPK1 (ATP consumption). The class given is biochemical. Conditions: GSK983 concentrations up to 10 μM. The method, then:
In vitro enzyme activity assays with recombinant human CMPK1. The activity of recombinant human CMPK1 was measured in the presence of GSK983 using an ATP consumption assay. CMPK1 (10 nM) was added to a reaction buffer containing Tris (50 mM, pH 7.5), MgCl2 (2 mM), DTT (2 mM), ATP (100 μM), CMP (100 μM), and GSK983 (0-10 μM, from a DMSO stock solution). The final concentration of DMSO in all reaction mixtures was 2% (v/v). Enzyme activity assays were conducted at 37° C. The consumption of phosphoryl donor ATP was monitored using a Promega Kinase-Glo Luminescent Kinase Assay kit according to the manufacturer's instructions. We observed no effect of GSK983 on CMPK1 activity in vitro at GSK983 concentrations up to 10 μM.

The subject of assay [7] is DENV. Nature of the assay: DENV antiviral assay (DENV-Luc replication in A549 cells). In kind it is cell-based, dengue virus serotype 2 strain 16681. The following applies: for IC50: Dengue virus, A549, 72 h.
For assay [8], the system named is A549 cells. Nature of the assay: A549 cell viability assay accompanying the DENV assay. The class given is cell-based, human. The following applies: 30 nM GSK983 and 1 mM deoxycytidine, 72 h.
For assay [9], the system named is VEEV. Nature of the assay: microbe, parasite or virus in culture. In kind it is cell-based, Venezuelan equine encephalitis virus (vaccine strain TC-83). The following applies: Venezuelan equine encephalitis virus, A549, read-out: IC50, inhibition of VEEV replication.
The subject of assay [10] is DENV. The class given is cell-based, dengue virus serotype 2 strain 16681. The following applies: 48 nM GSK983, 20 μM uridine, UCK2 shRNA derivative.
In assay [11] the test system is variety of unrelated viruses. The following applies: Harvey et al. (2009); read-out: EC50, inhibition of replication of a variety of unrelated viruses in vitro; cited from earlier work.
For assay [12], the system named is uridine salvage in K562 and A549 cells. Nature of the assay: Uridine salvage inhibition by 5-ethynyl-uridine (5-EU) incorporation and click chemistry. In kind it is cell-based. The following applies: Homo sapiens.
For assay [13], the system named is DENV. Nature of the assay: DENV antiviral assay for combination of GSK983 and DP. The following applies: Dengue virus. The class given is cell-based, dengue virus serotype 2 strain 16681.
In assay [14] the test system is A549 lung cancer cell line. Briefly: A549 cell count, DP with GSK983 in uridine supplemented media. In kind it is cell-based. The following applies: Homo sapiens, 158 nM GSK983, 20 μM uridine supplemented media, 72 h, read-out: IC50(DP), A549 viable cell count.
Assay [15] concerns K562 cells. Briefly: K562 cell count, DP with GSK983 in uridine supplemented media. The class given is cell-based. Conditions: Homo sapiens, 50 nM GSK983, 20 μM uridine supplemented media, 72 h.
In assay [16] the test system is MV4-11 cells. Nature of the assay: MV4-11 cell killing, DP with GSK983 in uridine supplemented media. In kind it is cell-based. Conditions: Homo sapiens, 158 nM GSK983, 20 μM uridine supplemented media.

Like-named read-outs stand apart in the source and are kept apart here.

Chain of recombinant human DHODH (Q02127 30-395): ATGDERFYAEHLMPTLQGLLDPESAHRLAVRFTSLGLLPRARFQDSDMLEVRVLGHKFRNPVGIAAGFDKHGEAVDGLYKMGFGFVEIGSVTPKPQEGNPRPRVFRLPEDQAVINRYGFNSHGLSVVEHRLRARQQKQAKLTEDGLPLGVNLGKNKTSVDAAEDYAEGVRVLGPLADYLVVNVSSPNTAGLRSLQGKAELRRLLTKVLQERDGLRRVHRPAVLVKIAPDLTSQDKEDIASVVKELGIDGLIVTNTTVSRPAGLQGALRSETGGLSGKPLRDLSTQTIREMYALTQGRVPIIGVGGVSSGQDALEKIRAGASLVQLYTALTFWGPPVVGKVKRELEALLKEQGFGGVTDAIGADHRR

As for `Cc1c(-c2ccc(-c3ccccc3F)cc2)nc2ccc(F)cc2c1C(=O)O` [brequinar], the “Efficacy towards CML in mouse models” value in [1] is “effective”.

Usually IC50 stands for the concentration that gives 50% inhibition. Usually Ki stands for a measure of affinity in units of concentration, obtained from inhibition or displacement. In general, EC50 refers to the concentration needed to bring the measured effect to its halfway point. Consider `O=C(N[C@@H]1CCCc2c1[nH]c1ccc(Cl)cc21)c1ccccn1` [GSK983, (R)—N-(6-Chloro-2,3,4,9-tetrahydro-1H-carbazol-1-yl)picolinamide], for which the IC50 in assay [2] was determined as 0.021 µM; in assay [7] (read-out: IC50, inhibition of DENV replication), 0.0133 µM; in [7] (read-out: IC50, inhibition of DENV replication with exogenous deoxycytidine), 0.0135 µM; in assay [9], 0.0128 µM. Further, in [3], the Cell cycle effect result is “accumulation of K562 cells in S phase”. Further, the “Cell death by apoptosis” value in assay [4] is on record as “dose dependent increase in K562 cell death by apoptosis”. For the same molecule, the Ki in [5] came out at 0.403 µM. For the same molecule, the “Effect on in vitro CMPK1 activity” value in assay [6] is recorded as “no effect”. Moreover, in assay [7] (30 nM GSK983 and 1 mM deoxycytidine, A549 cells), the “Reduction in DENV replication” value is given as about 90%. For the same molecule, the “Antiviral activity against DENV with uridine supplementation” value in [7] (A549 cells, 1 mM uridine) is on record as “completely abolished the antiviral activity”. Also, the “Effect on A549 cell growth” value in assay [8] is “minimal effect”. For the same molecule, the “DENV replication in A549 UCK2 shRNA cells” value in assay [10] was “inhibited viral replication in the latter cell-line”. The 50% effective concentration (EC50) in assay [11] is 0.005 to 0.02 µM.

As for `OCCN(CCO)c1nc(N2CCCCC2)c2nc(N(CCO)CCO)nc(N3CCCCC3)c2n1` [DP, dipyridamole], the IC50 turned out to be 0.2 µM in assay [12], 0.23 µM in assay [14], 0.11 µM in assay [15] and 0.11 µM in [16]. Also, the 50% effective concentration (EC50) in [13] (A549, 48 h, read-out: EC50 of DP, DENV luciferase signal, 2 days post-infection) came out at 0.135 µM; in assay [13] (A549, 72 h, read-out: EC50 of DP, DENV luciferase signal, 3 days post-infection), 0.164 µM.

Source of the values: patent publication US10736911B2, “Use of a DHODH inhibitor in combination with an inhibitor of pyrimidine salvage” (The Board of Trustees of the Leland Stanford Junior …, priority 2015, dated 2020).
